Molecules are shown by their SMILES.

In data set [1] the test system is Rattus norvegicus. As to the kind of experiment: Toxicity in Wistar rat assessed as biliary excretion of total glutathione per gm of liver at 5 mg/kg, sc administered as single dose after 5 hrs (reference value: 2 +/- 0.79 nmol/min). In kind it is organism-based. Details: dose 5 mg/kg, route subcutaneous; call rule not given here. The note with it: in vivo.
Data set [2] deals with Rattus norvegicus. As to the kind of experiment: Toxicity in Wistar rat assessed as bile flow per gm of liver at 5 mg/kg, sc administered as single dose after 5 hrs (reference value: 1.40 +/- 0.14 ul/min). The class given is organism-based. Details: dose 5 mg/kg, route subcutaneous. The conditions noted are these: in vivo.
Data set [3] has as its system Hepatocyte. In words: Effect on total ER level in Wistar rat hepatocytes nuclear extract at 10 uM after 30 to 120 mins by Western blot analysis. In kind it is ADME, cell-based. (In general: Immunoblotting shows a protein as a band on a membrane.)
Data set [4] deals with Rattus norvegicus. As to the kind of experiment: Toxicity in Wistar rat assessed as serum ALP activity at 5 mg/kg, sc administered as single dose after 5 hrs (reference value: 256 +/- 10 U/l). In kind it is organism-based. Set-up: dose 5 mg/kg, route subcutaneous. The note with it: in vivo.
Data set [5] concerns Rattus norvegicus. In words: Toxicity in Wistar rat assessed as biliary excretion of total bile salts per gm of liver at 5 mg/kg, sc administered as single dose after 5 hrs (reference value: 50 +/- 6 nmol/min). In kind it is organism-based. Set-up: dose 5 mg/kg, route subcutaneous. The note with it: in vivo.
The test system of data set [6] is Rattus norvegicus. In words: Toxicity in Wistar rat assessed as increase in Mrp3 mRNA level at 5 mg/kg, sc administered as single dose after 5 hrs by qRT-PCR analysis. The class given is organism-based. Set-up: dose 5 mg/kg, route subcutaneous. The conditions noted are these: in vivo.
Data set [7] relates to Hepatocyte. In words: Effect on Mrp2 mRNA level in Wistar rat hepatocytes at 1 to 10 uM after 5 hrs by qRT-PCR analysis. The class given is ADME, cell-based. A general note: In qPCR the cycle at which signal appears reflects the starting amount.

For `C#C[C@]1(O)CC[C@H]2[C@@H]3CCc4cc(O)ccc4[C@H]3CC[C@@]21C` [ETHINYL ESTRADIOL], the Activity is 1.8 nmol/min in data set [1]; 1.35 µL/min in data set [2]; “Non-toxic” in data set [3]; 269 U/L in data set [4]; 47 nmol/min in data set [5]; 330% in data set [6]. For the same molecule, the Activity result in data set [7] is “Not Active”.
